In patent US10479780B2, “Aminopyrazole derivatives” (Chugai Seiyaku Kabushiki Kaisha, priority 2015, dated 2019):

Assays:
Assay type in all cases: biochemical
[1] = biological target: T1, human Lck enzyme (Homo sapiens, UniProt P06239); assay: Lck enzyme inhibitory activity (time-resolved fluorometry, biotinylated peptide phosphorylation); conditions: biotinylated peptide phosphorylation, read-out: LCK_IC50
T1 construct: purchased Carna Biosciences, Inc. 08-170
Procedure, shortened: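 Readout pairs a europium cryptate-labelled anti-phosphotyrosine antibody with XL665-streptavidin, measured by time-resolved fluorescence. IC50 derived from percent inhibition against untreated controls.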

[2] = biological target: T2, human Yes1 enzyme (Homo sapiens, UniProt P07947); assay: Yes1 enzyme inhibitory activity (time-resolved fluorometry, biotinylated peptide phosphorylation); conditions: biotinylated peptide phosphorylation, read-out: YES_IC50
T2 construct: made in house
Procedure, shortened: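 Inhibition was expressed against a compound-free control to give IC50, using TR-FRET read-out (Eu-cryptate anti-pTyr antibody, streptavidin-XL665).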

[3] = biological target: T3, human Src enzyme (Homo sapiens, UniProt P12931); assay: Src enzyme inhibitory activity (time-resolved fluorometry, biotinylated peptide phosphorylation); conditions: biotinylated peptide phosphorylation, read-out: SRC_IC50
T3 construct: purchased Carna Biosciences, Inc. 08-173
Procedure, shortened: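 Compounds were tested for blocking tyrosine phosphorylation of a biotinylated peptide substrate by recombinant human Src. Phosphorylated product was quantified by time-resolved fluorometry using europium cryptate and XL665 conjugates, and IC50 was calculated against the compound-free control.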

T3 sequence (P12931 whole entry): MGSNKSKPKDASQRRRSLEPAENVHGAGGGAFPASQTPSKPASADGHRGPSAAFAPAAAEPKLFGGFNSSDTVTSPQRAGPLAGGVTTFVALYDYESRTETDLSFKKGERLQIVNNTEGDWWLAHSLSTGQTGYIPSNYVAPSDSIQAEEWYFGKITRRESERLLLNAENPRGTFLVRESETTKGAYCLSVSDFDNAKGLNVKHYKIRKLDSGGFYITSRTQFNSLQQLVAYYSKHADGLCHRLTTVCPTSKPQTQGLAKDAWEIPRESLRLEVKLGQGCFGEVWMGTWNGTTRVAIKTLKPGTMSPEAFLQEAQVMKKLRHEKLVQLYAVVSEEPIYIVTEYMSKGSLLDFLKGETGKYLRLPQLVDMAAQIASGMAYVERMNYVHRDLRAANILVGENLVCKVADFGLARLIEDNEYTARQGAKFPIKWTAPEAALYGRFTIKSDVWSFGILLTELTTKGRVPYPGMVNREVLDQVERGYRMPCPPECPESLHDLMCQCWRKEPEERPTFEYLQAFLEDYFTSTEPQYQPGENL
T1 sequence (P06239 whole entry): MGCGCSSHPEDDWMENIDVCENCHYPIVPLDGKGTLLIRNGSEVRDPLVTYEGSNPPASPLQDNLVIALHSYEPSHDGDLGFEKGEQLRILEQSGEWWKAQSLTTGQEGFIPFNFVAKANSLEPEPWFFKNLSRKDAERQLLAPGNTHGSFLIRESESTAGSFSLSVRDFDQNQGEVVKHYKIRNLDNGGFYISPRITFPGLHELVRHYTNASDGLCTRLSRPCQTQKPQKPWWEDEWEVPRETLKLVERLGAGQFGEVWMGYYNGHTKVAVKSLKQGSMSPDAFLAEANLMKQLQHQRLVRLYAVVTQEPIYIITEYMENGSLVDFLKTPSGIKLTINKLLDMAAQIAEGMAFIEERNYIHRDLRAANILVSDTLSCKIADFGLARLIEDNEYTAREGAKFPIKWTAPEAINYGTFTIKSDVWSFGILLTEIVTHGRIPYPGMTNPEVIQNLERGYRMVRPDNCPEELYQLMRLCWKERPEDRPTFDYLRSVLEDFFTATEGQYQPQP
T2 sequence (P07947 whole entry): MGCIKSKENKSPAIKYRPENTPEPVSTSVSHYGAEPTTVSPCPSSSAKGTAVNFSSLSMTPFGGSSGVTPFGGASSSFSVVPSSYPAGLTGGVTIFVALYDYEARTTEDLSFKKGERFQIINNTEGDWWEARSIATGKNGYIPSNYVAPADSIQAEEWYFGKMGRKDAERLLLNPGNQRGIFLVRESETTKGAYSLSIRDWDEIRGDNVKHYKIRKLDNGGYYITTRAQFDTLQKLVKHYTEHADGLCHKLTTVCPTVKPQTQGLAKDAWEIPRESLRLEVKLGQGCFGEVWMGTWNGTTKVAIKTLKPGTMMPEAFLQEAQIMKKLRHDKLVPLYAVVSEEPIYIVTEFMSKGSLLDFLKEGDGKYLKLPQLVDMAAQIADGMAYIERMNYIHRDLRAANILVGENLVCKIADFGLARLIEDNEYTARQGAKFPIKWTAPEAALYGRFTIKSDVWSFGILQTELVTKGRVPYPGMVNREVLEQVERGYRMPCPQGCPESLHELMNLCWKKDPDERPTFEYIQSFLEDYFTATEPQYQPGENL

IC50 [1] [nM]	IC50 [2] [nM]	IC50 [3] [nM]	Structure (SMILES)
810	17	2400	Cc1cc(Oc2c(F)cccc2F)ncc1-n1ncc(C(=O)c2cc3cc(F)c(NS(=O)(=O)c4cccc(Cl)c4)cc3[nH]2)c1N [Example 5-1-559, N-[2-[5-amino-1-[6-(2,6-difluorophenoxy)-4-methylpyridin-3-yl]pyrazole-4-carbonyl]-5-fluoro-1H-indol-6-yl]-3-chlorobenzenesulfonamide]
690	16	2400	Cc1cc(Oc2ccccc2F)ncc1-n1ncc(C(=O)c2cc3cc(F)c(NS(=O)(=O)c4cccc(Cl)c4)cc3[nH]2)c1N [Example 5-1-560, N-[2-[5-amino-1-[6-(2-fluorophenoxy)-4-methylpyridin-3-yl]pyrazole-4-carbonyl]-5-fluoro-1H-indol-6-yl]-3-chlorobenzenesulfonamide]
270	17	940	Cc1cc2cc(C(=O)c3cnn(-c4cnc(Oc5c(F)cccc5F)cc4C)c3N)[nH]c2cc1NS(=O)(=O)c1cc(F)cc(F)c1 [Example 5-1-561, N-[2-[5-amino-1-[6-(2,6-difluorophenoxy)-4-methylpyridin-3-yl]pyrazole-4-carbonyl]-5-methyl-1H-indol-6-yl]-3,5-difiuorobenzenesulfonamide]
180	5.3	830	Cc1cc(Oc2ccccc2F)ccc1-n1ncc(C(=O)c2cc3cc(F)c(NS(=O)(=O)c4cc(F)cc(F)c4)cc3[nH]2)c1N [Example 5-1-562, N-[2-[5-amino-1-[4-(2-fluorophenoxy)-2-methylphenyl]pyrazole-4-carbonyl]-5-fluoro-1H-indol-6-yl]-3,5-difluorobenzenesulfonamide]
590	17	1200	Cc1cc(Oc2c(F)cccc2F)ncc1-n1ncc(C(=O)c2cc3cc(F)c(NS(=O)(=O)c4cc(F)cc(F)c4)cc3[nH]2)c1N [Example 5-1-563, N-[2-[5-amino-1-[6-(2,6-difluorophenoxy)-4-methylpyridin-3-yl]pyrazole-4-carbonyl]-5-fluoro-1H-indol-6-yl]-3,5-difluorobenzenesulfonamide]
680	14	1500	Cc1cc(Oc2ccccc2F)ncc1-n1ncc(C(=O)c2cc3cc(F)c(NS(=O)(=O)c4cc(F)cc(F)c4)cc3[nH]2)c1N [Example 5-1-564, N-[2-[5-amino-1-[6-(2-fluorophenoxy)-4-methylpyridin-3-yl]pyrazole-4-carbonyl]-5-fluoro-1H-indol-6-yl]-3,5-difluorobenzenesulfonamide]
720	19	1100	Cc1cc2cc(C(=O)c3cnn(-c4cnc(Oc5c(F)cccc5F)cc4C)c3N)[nH]c2cc1NS(=O)(=O)c1c(F)cc(F)cc1F [Example 5-1-565, N-[2-[5-amino-1-[6-(2,6-difluorophenoxy)-4-methylpyridin-3-yl]pyrazole-4-carbonyl]-5-methyl-1H-indol-6-yl]-2,4,6-trifluorobenzenesulfonamide]
340	5.6	810	Cc1cc(Oc2ccccc2F)ccc1-n1ncc(C(=O)c2cc3cc(F)c(NS(=O)(=O)c4c(F)cc(F)cc4F)cc3[nH]2)c1N [Example 5-1-566, N-[2-[5-amino-1-[4-(2-fluorophenoxy)-2-methylphenyl]pyrazole-4-carbonyl]-5-fluoro-1H-indol-6-yl]-2,4,6-trifluorobenzenesulfonamide]
610	19	1200	Cc1cc(Oc2c(F)cccc2F)ncc1-n1ncc(C(=O)c2cc3cc(F)c(NS(=O)(=O)c4c(F)cc(F)cc4F)cc3[nH]2)c1N [Example 5-1-567, N-[2-[5-amino-1-[6-(2,6-difluorophenoxy)-4-methylpyridin-3-yl]pyrazole-4-carbonyl]-5-fluoro-1H-indol-6-yl]-2,4,6-trifluorobenzenesulfonamide]
750	17	1300	Cc1cc(Oc2ccccc2F)ncc1-n1ncc(C(=O)c2cc3cc(F)c(NS(=O)(=O)c4c(F)cc(F)cc4F)cc3[nH]2)c1N [Example 5-1-568, N-[2-[5-amino-1-[6-(2-fluorophenoxy)-4-methylpyridin-3-yl]pyrazole-4-carbonyl]-5-fluoro-1H-indol-6-yl]-2,4,6-trifluorobenzenesulfonamide]
22	4.1	230	COc1ccnc(S(=O)(=O)Nc2cc3[nH]c(C(=O)c4cnn(-c5cnc(Oc6c(F)cccc6F)cc5C)c4N)cc3cc2OCC(F)F)c1 [Example 5-1-569, N-[2-[5-amino-1-[6-(2,6-difluorophenoxy)-4-methylpyridin-3-yl]pyrazole-4-carbonyl]-5-(2,2-difluoroethoxy)-1H-indol-6-yl]-4-methoxypyridine-2-sulfonamide]
9.6	2.1	410	Cc1cc(Oc2c(F)cccc2F)ncc1-n1ncc(C(=O)c2cc3cc(OCC(F)F)c(NS(=O)(=O)c4cccc(F)n4)cc3[nH]2)c1N [Example 5-1-570, N-[2-[5-amino-1-[6-(2,6-difluorophenoxy)-4-methylpyridin-3-yl]pyrazole-4-carbonyl]-5-(2,2-difluoroethoxy)-1H-indol-6-yl]-6-fluoropyridine-2-sulfonamide]
30	2.2	540	Cc1cnc(F)c(S(=O)(=O)Nc2cc3[nH]c(C(=O)c4cnn(-c5cnc(Oc6c(F)cccc6F)cc5C)c4N)cc3cc2OCC(F)F)c1 [Example 5-1-571, N-[2-[5-amino-1-[6-(2,6-difluorophenoxy)-4-methylpyridin-3-yl]pyrazole-4-carbonyl]-5-(2,2-difluoroethoxy)-1H-indol-6-yl]-2-fluoro-5-methylpyridine-3-sulfonamide]
21	3.5	690	Cc1cc(Oc2c(F)cccc2F)ncc1-n1ncc(C(=O)c2cc3cc(OCC(F)F)c(NS(=O)(=O)c4cccc(Cl)n4)cc3[nH]2)c1N [Example 5-1-572, N-[2-[5-amino-1-[6-(2,6-difluorophenoxy)-4-methylpyridin-3-yl]pyrazole-4-carbonyl]-5-(2,2-difluoroethoxy)-1H-indol-6-yl]-6-chloropyridine-2-sulfonamide]
14	2.9	440	Cc1cccc(S(=O)(=O)Nc2cc3[nH]c(C(=O)c4cnn(-c5cnc(Oc6c(F)cccc6F)cc5C)c4N)cc3cc2OCC(F)F)n1 [Example 5-1-573, N-[2-[5-amino-1-[6-(2,6-difluorophenoxy)-4-methylpyridin-3-yl]pyrazole-4-carbonyl]-5-(2,2-difluoroethoxy)-1H-indol-6-yl]-6-methylpyridine-2-sulfonamide]
13	2.8	540	Cc1cc(Oc2c(F)cccc2F)ncc1-n1ncc(C(=O)c2cc3cc(OCC(F)F)c(NS(=O)(=O)c4cccc(C#N)n4)cc3[nH]2)c1N [Example 5-1-574, N-[2-[5-amino-1-[6-(2,6-difluorophenoxy)-4-methylpyridin-3-yl]pyrazole-4-carbonyl]-5-(2,2-difluoroethoxy)-1H-indol-6-yl]-6-cyanopyridine-2-sulfonamide]
46	4.3	650	Cc1cc(Oc2c(F)cccc2F)ncc1-n1ncc(C(=O)c2cc3cc(OCC(F)F)c(NS(=O)(=O)c4cncc(Cl)c4)cc3[nH]2)c1N [Example 5-1-575, N-[2-[5-amino-1-[6-(2,6-difluorophenoxy)-4-methylpyridin-3-yl]pyrazole-4-carbonyl]-5-(2,2-difluoroethoxy)-1H-indol-6-yl]-5-chloropyridine-3-sulfonamide]
14	3.1	470	Cc1cc(Oc2c(F)cccc2F)ncc1-n1ncc(C(=O)c2cc3cc(OCC(F)F)c(NS(=O)(=O)c4cncc(F)c4)cc3[nH]2)c1N [Example 5-1-576, N-[2-[5-amino-1-[6-(2,6-difluorophenoxy)-4-methylpyridin-3-yl]pyrazole-4-carbonyl]-5-(2,2-difluoroethoxy)-1H-indol-6-yl]-5-fluoropyridine-3-sulfonamide]
380	6.6	1100	Cc1cc2cc(C(=O)c3cnn(-c4cnc(Oc5ccccc5F)cc4C)c3N)[nH]c2cc1NS(=O)(=O)c1cnc(N(C)C)nc1 [Example 5-1-577, N-[2-[5-amino-1-[6-(2-fluorophenoxy)-4-methylpyridin-3-yl]pyrazole-4-carbonyl]-5-methyl-1H-indol-6-yl]-2-(dimethylamino) pyrimidine-5-sulfonamide]
